Measurements: ChEMBL document CHEMBL1137871, “Discovery of orally active prostaglandin D2 receptor antagonists” (Bioorg Med Chem Lett, 2004)

Columns and labels:
[1] = target: T1, Prostaglandin E2 receptor EP3 subtype (Mus musculus, UniProt P30557); test: Ability to inhibit the binding of [3H]PGD-2 radioligand to membranes of CHO cells stably expressing mouse Prostaglandin E receptor EP3; type: cell membranes
T1 sequence (P30557 whole entry): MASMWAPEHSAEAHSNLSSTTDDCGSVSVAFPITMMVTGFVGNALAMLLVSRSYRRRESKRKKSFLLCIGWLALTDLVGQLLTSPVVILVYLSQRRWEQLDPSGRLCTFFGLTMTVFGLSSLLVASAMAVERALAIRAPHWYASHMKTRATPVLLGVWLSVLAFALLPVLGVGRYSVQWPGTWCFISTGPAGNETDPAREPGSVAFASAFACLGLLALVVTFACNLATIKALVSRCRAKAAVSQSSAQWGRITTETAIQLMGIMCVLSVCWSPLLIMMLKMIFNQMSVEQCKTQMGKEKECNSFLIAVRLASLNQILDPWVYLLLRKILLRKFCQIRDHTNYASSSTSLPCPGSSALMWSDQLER

[2] = target: T2, Prostaglandin D2 receptor (Mus musculus, UniProt P70263); test: Ability to inhibit the binding of [3H]PGD-2 radioligand to membranes of CHO cells stably expressing mouse Prostaglandin D2 receptor; type: cell membranes
T2 sequence (P70263 whole entry): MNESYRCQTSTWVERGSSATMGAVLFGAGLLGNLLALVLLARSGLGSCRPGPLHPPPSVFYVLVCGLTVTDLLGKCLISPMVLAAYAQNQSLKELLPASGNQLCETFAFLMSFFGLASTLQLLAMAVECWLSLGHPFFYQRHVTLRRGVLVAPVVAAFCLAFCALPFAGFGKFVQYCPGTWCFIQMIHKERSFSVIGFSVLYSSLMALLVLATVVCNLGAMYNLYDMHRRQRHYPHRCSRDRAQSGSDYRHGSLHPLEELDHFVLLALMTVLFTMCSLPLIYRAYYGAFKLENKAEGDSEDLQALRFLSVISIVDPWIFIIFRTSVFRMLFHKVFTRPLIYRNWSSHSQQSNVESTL

[3] = target: T2, Prostaglandin D2 receptor; test: Effect on the increase in cAMP formation induced by PGD-2 in the presence of bovine serum albumin in CHO cells expressing mouse Prostaglandin D2 receptor; type: functional, cell-based
[4] = target: Prostaglandin E2 receptor EP4 subtype (Mus musculus, UniProt P32240); test: Ability to inhibit the binding of [3H]PGD-2 radioligand to membranes of CHO cells stably expressing mouse Prostaglandin E receptor EP4; type: cell membranes
[5] = target: T3, Prostaglandin E2 receptor EP1 subtype (Mus musculus, UniProt P35375); test: Ability to inhibit the binding of [3H]PGD-2 radioligand to membranes of CHO cells stably expressing mouse Prostaglandin E receptor EP1; type: cell membranes
T3 sequence (P35375 whole entry): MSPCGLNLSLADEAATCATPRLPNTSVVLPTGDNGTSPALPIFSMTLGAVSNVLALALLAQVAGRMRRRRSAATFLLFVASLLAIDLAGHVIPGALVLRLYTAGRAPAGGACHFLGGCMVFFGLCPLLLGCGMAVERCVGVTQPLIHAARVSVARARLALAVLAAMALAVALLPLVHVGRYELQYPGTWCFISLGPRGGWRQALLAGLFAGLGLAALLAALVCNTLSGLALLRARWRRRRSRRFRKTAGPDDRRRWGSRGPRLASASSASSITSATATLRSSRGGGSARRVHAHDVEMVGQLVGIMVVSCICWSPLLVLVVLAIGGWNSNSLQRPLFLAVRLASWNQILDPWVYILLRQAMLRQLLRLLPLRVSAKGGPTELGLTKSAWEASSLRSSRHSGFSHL

[6] = target: Prostaglandin E2 receptor EP2 subtype (Mus musculus, UniProt Q62053); test: Ability to inhibit the binding of [3H]-PGD-2 radioligand to membranes of CHO cells stably expressing mouse Prostaglandin E receptor EP2; type: cell membranes
[7] = target: T4, Prostaglandin D2 receptor (Homo sapiens, UniProt Q13258); test: Ability to inhibit the binding of [3H]PGD-2 radioligand to membranes of CHO cells stably expressing human Prostaglandin D2 receptor; type: cell membranes
T4 sequence (Q13258 whole entry): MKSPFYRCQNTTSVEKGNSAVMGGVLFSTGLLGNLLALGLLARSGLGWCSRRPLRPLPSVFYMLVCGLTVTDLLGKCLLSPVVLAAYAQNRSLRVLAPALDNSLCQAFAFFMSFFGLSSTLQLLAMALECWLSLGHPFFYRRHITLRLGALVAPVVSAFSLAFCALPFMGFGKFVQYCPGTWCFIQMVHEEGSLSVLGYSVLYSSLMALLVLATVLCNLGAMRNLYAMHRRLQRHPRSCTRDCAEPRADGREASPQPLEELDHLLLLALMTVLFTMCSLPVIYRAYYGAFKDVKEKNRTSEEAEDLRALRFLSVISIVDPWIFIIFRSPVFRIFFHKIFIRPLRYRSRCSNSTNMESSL

[8] = target: T4, Prostaglandin D2 receptor; test: Effect on the increase in cAMP formation induced by PGD-2 in the presence of bovine serum albumin in CHO cells expressing human Prostaglandin D2 receptor; type: functional, cell-based
Cavia porcellus = test: inhibitory effect of compound on PGD-2 (0.01%, 20 uL/eye) induced vascular permeability in guinea pig conjunctiva at an oral dose of 0.3 mg/kg

Prostaglandin E2 receptor EP4 subtype, sequence (P32240 whole entry): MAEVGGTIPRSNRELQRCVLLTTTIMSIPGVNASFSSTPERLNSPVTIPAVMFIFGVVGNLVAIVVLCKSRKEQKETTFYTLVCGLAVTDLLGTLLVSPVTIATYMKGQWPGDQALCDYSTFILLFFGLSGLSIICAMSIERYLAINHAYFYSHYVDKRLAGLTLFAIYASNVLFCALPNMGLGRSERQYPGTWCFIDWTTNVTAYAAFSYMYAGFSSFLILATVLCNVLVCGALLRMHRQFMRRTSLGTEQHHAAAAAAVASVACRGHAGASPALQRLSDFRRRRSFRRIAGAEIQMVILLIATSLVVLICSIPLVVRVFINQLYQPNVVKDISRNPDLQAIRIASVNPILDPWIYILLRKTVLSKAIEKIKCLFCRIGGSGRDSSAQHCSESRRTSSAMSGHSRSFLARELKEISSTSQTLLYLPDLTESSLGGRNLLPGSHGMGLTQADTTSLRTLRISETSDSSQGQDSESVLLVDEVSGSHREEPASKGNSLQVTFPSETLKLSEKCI
Prostaglandin E2 receptor EP2 subtype, sequence (Q62053 whole entry): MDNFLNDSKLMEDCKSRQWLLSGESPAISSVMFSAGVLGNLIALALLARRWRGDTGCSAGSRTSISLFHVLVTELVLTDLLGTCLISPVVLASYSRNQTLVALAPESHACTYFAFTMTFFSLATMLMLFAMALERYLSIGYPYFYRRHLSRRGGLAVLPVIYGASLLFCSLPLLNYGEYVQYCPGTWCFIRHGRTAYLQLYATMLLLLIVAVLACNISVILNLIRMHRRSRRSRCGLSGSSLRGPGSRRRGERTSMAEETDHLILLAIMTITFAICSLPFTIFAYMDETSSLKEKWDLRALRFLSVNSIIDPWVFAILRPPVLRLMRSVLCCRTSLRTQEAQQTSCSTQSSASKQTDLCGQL

Row | Compound | Ki [1] | Ki [2] | IC50 [3] | Ki [4] | Ki [5] | Ki [6] | Ki [7] | IC50 [8] | inhibition in vivo at 0.3 mg/kg (Cavia porcellus)
1 | CCCCOc1ccc(C(=O)n2c(C)cc3c(CC(=O)O)cccc32)cc1 | 3300 nM | 10 nM | 300 nM | > 10000 nM | > 10000 nM | 2000 nM |  |  | 
2 | Cc1cc2c(CC(=O)O)cccc2n1C(=O)c1ccc(OCC2Oc3ccccc3O2)cc1 | 750 nM | 9.4 nM |  | > 10000 nM | 780 nM | 250 nM | 30 nM | 50 nM | 
3 | Cc1cc2c(CC(=O)O)cccc2n1C(=O)c1ccc(OC[C@@H]2CN(C)c3ccc(F)cc3O2)cc1 | 1700 nM | 23 nM |  | > 10000 nM | > 10000 nM | 2100 nM | 5.3 nM | 0.81 nM | 60%
4 | Cc1cc2c(CC(=O)O)cccc2n1C(=O)c1ccc(OCCOc2ccccc2)cc1 | > 10000 nM | 10 nM | 50 nM | > 10000 nM | 5600 nM | 540 nM | 290 nM | 250 nM | 
5 | Cc1cc2c(CC(=O)O)cccc2n1C(=O)c1ccc(OCCCc2ccccc2)cc1 | 3300 nM | 170 nM |  | 2100 nM | 7700 nM |  |  |  | 
6 | Cc1cc2c(CC(=O)O)cccc2n1C(=O)c1ccc(OCC2COc3ccccc3C2)cc1 (stereo unspecified) | > 10000 nM | 180 nM |  | 3500 nM | > 10000 nM | 280 nM | 390 nM |  | 
7 | Cc1cc2c(CC(=O)O)cccc2n1C(=O)c1ccc(OCCc2ccccc2)cc1 | 2200 nM |  |  | 1900 nM | 400 nM | 1300 nM |  |  | 
8 | Cc1cc2c(CC(=O)O)cccc2n1C(=O)c1ccc(OCC2Cc3ccccc3O2)cc1 (stereo unspecified) | 980 nM | 20 nM |  | > 10000 nM | 7800 nM | 450 nM | 20 nM | 30 nM | 
9 | Cc1cc2c(CC(=O)O)cccc2n1C(=O)c1ccc(OC[C@@H]2COc3ccccc3O2)cc1 | > 10000 nM | 10 nM |  | > 10000 nM | 2000 nM | 60 nM | 10 nM | 30 nM | 
10 | Cc1cc2c(CC(=O)O)cccc2n1C(=O)c1ccc(OC[C@@H]2CN(C)c3ccccc3O2)cc1 | 1700 nM | 10 nM |  | > 10000 nM | 6200 nM | 100 nM | 3.5 nM | 1.2 nM | 
11 | Cc1cc2c(CC(=O)O)cccc2n1C(=O)c1ccc(OCc2ccccc2)cc1 | 1200 nM | 60 nM | 1300 nM | > 10000 nM | 1200 nM | 330 nM |  |  | 
12 | Cc1cc2c(CC(=O)O)cccc2n1C(=O)c1ccc(OC[C@H]2CN(C)c3ccccc3O2)cc1 | > 10000 nM | 230 nM |  | > 10000 nM | > 10000 nM | 410 nM | 170 nM | 10 nM | 
13 | Cc1cc2c(CC(=O)O)cccc2n1C(=O)c1ccc(OCC2CCc3ccccc3O2)cc1 (stereo unspecified) | > 10000 nM | 60 nM |  | 3100 nM | 3800 nM | 90 nM | 50 nM | 30 nM | 
14 | Cc1cc2c(CC(=O)O)cccc2n1C(=O)c1ccc(OC[C@H]2COc3ccccc3O2)cc1 | > 10000 nM | 120 nM |  | 1300 nM | 2300 nM | 1300 nM | 130 nM | 270 nM | 
